Drawing on US9834542B2, “LXR modulators” (BRISTOL-MYERS SQUIBB COMPANY, priority 2013, dated 2017), this text covers EC50 and Emax for 18 compounds.

For this assay, the target named is T1, LXRβ (Homo sapiens, UniProt P55055).
T1 construct: Co-transfection expression plasmids, comprising full-length LXRα (pCMX-h LXRα[…] or LXRβ (pCMX-hLXRβ)); expressed in transfected cells; host or cells: CV-1 African Green Monkey Kidney Cells
T1 sequence (P55055 1-460): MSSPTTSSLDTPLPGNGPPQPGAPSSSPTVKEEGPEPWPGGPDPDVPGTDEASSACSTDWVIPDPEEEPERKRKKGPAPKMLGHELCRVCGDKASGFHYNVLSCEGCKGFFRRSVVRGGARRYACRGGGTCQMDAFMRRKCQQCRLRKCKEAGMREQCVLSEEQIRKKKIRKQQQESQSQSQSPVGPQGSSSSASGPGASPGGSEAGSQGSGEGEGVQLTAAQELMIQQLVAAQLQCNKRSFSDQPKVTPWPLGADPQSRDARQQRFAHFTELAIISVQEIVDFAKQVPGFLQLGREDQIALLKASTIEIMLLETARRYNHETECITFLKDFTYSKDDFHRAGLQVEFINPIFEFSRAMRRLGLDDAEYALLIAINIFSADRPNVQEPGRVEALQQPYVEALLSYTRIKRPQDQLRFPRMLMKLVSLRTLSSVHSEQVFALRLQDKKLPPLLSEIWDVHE
T1 sequence (P19793 1-462 partner): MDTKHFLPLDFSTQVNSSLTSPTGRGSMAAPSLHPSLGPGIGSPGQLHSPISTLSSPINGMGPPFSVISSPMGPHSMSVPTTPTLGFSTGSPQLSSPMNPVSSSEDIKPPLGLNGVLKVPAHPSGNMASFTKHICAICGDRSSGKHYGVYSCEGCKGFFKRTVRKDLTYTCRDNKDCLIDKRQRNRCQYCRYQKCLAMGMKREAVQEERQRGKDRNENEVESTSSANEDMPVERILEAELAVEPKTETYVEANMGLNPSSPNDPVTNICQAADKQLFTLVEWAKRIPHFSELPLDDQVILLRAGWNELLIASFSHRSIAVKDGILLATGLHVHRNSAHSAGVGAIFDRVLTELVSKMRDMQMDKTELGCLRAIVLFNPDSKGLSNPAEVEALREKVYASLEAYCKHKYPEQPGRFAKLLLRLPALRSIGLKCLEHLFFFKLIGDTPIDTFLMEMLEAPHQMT
Briefly: Co-transfection assay (LXRE luciferase reporter), LXRβ. The class given is cell-based. The following applies: for EC50: CV-1 cells transfected with pCMX-hLXRβ and LXREx1-Tk-Luciferase, 20 hours incubation; for Emax: LXRβ co-transfection, relative to high control 1-(2,4-difluorobenzyl)-2-oxo-6-(4-phenoxyphenyl)-4-(trifluoromethyl)-1,2-dihydropyridine-3-carbonitrile, read-out: % Efficacy. A digest of the protocol:
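Luciferase output from an LXRE-Tk reporter measured after 20 h, 37 °C compound exposure of transiently transfected CV-1 cells expressing human LXRβ with endogenous RXR. EC50 fitted from 11-point half-log dose responses (mean of ≥2 runs); % efficacy versus maximal response of the reference agonist.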
(In a reporter assay the amount or activity of a reporter protein is the signal.)

Regarding `CNS(=O)(=O)c1cccc(-c2cc(F)c(-n3cc(C(F)(F)F)nc3C)c(-n3nncc3-c3ccc(Cl)cc3)c2)c1` [Example 209, 3′-[5-(4-chlorophenyl)-1H-1,2,3-triazol-1-yl]-5′-fluoro-N-methyl-4′-[2-methyl-4-(trifluoromethyl)-1H-imidazol-1-yl]biphenyl-3-sulfonamide], a half-maximal effect (EC50) was put at 214 nM and the Emax worked out at 80%.

With `Cc1nc(C(F)(F)F)cn1-c1ccc(-c2cccc(S(C)(=O)=O)c2)cc1-c1nc(C(F)(F)F)cn1-c1ccc2c(c1)OC(F)(F)O2` [Example 640, 1-(2,2-difluorobenzo[d][1,3]dioxol-5-yl)-2-(4-(2-methyl-4-(trifluoromethyl)-1H-imidazol-1-yl)-3′-(methylsulfonyl)biphenyl-3-yl)-4-(trifluoromethyl)-1H-imidazole], a half-maximal effect (EC50) was put at 218 nM and the Emax amounted to 61%.

In the case of `Cc1nc(C(F)(F)F)cn1-c1ccc(-c2cccc(S(C)(=O)=O)c2)cc1-c1ccnn1-c1ccc(OC(F)(F)F)cc1` [Example 289, 5-{3′-(methylsulfonyl)-4-[2-methyl-4-(trifluoromethyl)-1H-imidazol-1-yl]biphenyl-3-yl}-1-{4-[(trifluoromethyl)oxy]phenyl}-1H-pyrazole], the concentration for a half-maximal effect (EC50) amounted to 122 nM and the Emax came out at 75%.

For `Cc1nc(C(F)(F)F)cn1-c1ccc(-c2cccc(S(C)(=O)=O)c2)cc1-n1nncc1-c1cccc(C(F)(F)F)c1` [Example 25, 1-{3′-(methylsulfonyl)-4-[2-methyl-4-(trifluoromethyl)-1H-imidazol-1-yl]biphenyl-3-yl}-5-[3-(trifluoromethyl)phenyl]-1H-1,2,3-triazole], it took 529 nM to reach a half-maximal effect (EC50) and the Emax amounted to 116%.

In the case of `CCc1nc(-c2cc(-c3cccc(S(C)(=O)=O)c3)ccc2-n2cc(C(F)(F)F)nc2C)c(-c2ccc3c(c2)OC(F)(F)O3)o1` [Example 478, 5-(2,2-difluorobenzo[d][1,3]dioxol-5-yl)-2-ethyl-4-(4-(2-methyl-4-(trifluoromethyl)-1H-imidazol-1-yl)-3′-(methylsulfonyl)biphenyl-3-yl)oxazole], the EC50 was 32 nM and the Emax was 89%.

As to `CCC(F)(F)c1cn(-c2ccc(-c3cccc(S(C)(=O)=O)c3)cc2-c2nc(C)oc2-c2ccc(OC(F)(F)F)cc2)c(C)n1` [Example 517, 4-(4-(4-(1,1-difluoropropyl)-2-methyl-1H-imidazol-1-yl)-3′-(methylsulfonyl)-[1,1′-biphenyl]-3-yl)-2-methyl-5-(4-(trifluoromethoxy)phenyl)oxazole], it took 146 nM to reach a half-maximal effect (EC50) and the Emax is 47%.

With `Cc1nc(C(F)(F)F)cn1-c1c(F)cc(-c2ccc(CO)c(S(C)(=O)=O)c2)cc1-n1nncc1-c1ccc(Cl)cc1` [Example 210, {3′-[5-(4-chlorophenyl)-1H-1,2,3-triazol-1-yl]-5′-fluoro-3-(methylsulfonyl)-4′-[2-methyl-4-(trifluoromethyl)-1H-imidazol-1-yl]biphenyl-4-yl}methanol], it took 394 nM to reach a half-maximal effect (EC50) and the Emax was determined as 78%.

Take `Cc1nc(-c2cc(-c3cccc(S(C)(=O)=O)c3)ccc2-n2cc(C(F)(F)F)nc2C)c(-c2ccc(Cl)cc2Cl)o1` [Example 486, 5-(2,4-dichlorophenyl)-2-methyl-4-(4-(2-methyl-4-(trifluoromethyl)-1H-imidazol-1-yl)-3′-(methylsulfonyl)biphenyl-3-yl)oxazole]: the EC50 came to 109 nM and the Emax is 89%.

For `Cc1nc(C(F)(F)F)cn1-c1ccc(-c2cc(F)c(CO)c(S(C)(=O)=O)c2)cc1-c1nc(CC(C)O)oc1-c1ccc(OC(F)(F)F)cc1` (stereo not drawn) [Example 534, 1-(4-(3′-fluoro-4′-(hydroxymethyl)-4-(2-methyl-4-(trifluoromethyl)-1H-imidazol-1-yl)-5′-(methylsulfonyl)-[1,1′-biphenyl]-3-yl)-5-(4-(trifluoromethoxy)phenyl)oxazol-2-yl)propan-2-ol], the EC50 came out at 197 nM and the Emax turned out to be 55%.

As for `Cc1nc(C(F)(F)F)cn1-c1ccc(-c2cc(F)c(CO)c(S(C)(=O)=O)c2)cc1-c1ccnn1-c1ccc(Cl)cc1` [Example 288, {3′-[1-(4-chlorophenyl)-1H-pyrazol-5-yl]-3-fluoro-5-(methylsulfonyl)-4′-[2-methyl-4-(trifluoromethyl)-1H-imidazol-1-yl]biphenyl-4-yl}methanol], the response was half-maximal at 74 nM (EC50) and the Emax was found to be 81%.

In the case of `Cc1nc(C(F)(F)F)c(Cl)n1-c1ccc(-c2cc(Cl)c(CO)c(S(C)(=O)=O)c2)cc1-n1nncc1-c1ccc(OC(F)(F)F)cc1` [Example 60, {3-chloro-4′-[5-chloro-2-methyl-4-(trifluoromethyl)-1H-imidazol-1-yl]-5-(methylsulfonyl)-3′-(5-{4-[(trifluoromethyl)oxy]phenyl}-1H-1,2,3-triazol-1-yl)biphenyl-4-yl}methanol], the EC50 is 245 nM and the Emax was 121%.

As for `Cc1nc(C(F)(F)F)cn1-c1ccc(-c2cc(Cl)c(CO)c(S(C)(=O)=O)c2)cc1-n1nncc1-c1ccc(OC(F)(F)F)cc1` [Example 212, (3-chloro-4′-(2-methyl-4-(trifluoromethyl)-1H-imidazol-1-yl)-5-(methylsulfonyl)-3′-(5-(4-(trifluoromethoxy)phenyl)-1H-1,2,3-triazol-1-yl)-[1,1′-biphenyl]-4-yl)methanol], the EC50 turned out to be 430 nM and the Emax was 101%.

Take `Cc1nc(C2CC2)cn1-c1ccc(-c2cccc(S(C)(=O)=O)c2)cc1-n1nncc1-c1ccc(OC(F)(F)F)cc1` [Example 229, 1-(4-(4-cyclopropyl-2-methyl-1H-imidazol-1-yl)-3′-(methylsulfonyl)-[1,1′-biphenyl]-3-yl)-5-(4-(trifluoromethoxy)phenyl)-1H-1,2,3-triazole]: the EC50 worked out at 949 nM and the Emax was 72%.

With `Cc1nc(C(F)(F)F)cn1-c1ccc(-c2cc(F)c(CO)c(S(C)(=O)=O)c2)cc1-n1nncc1-c1ccc(Cl)cc1` [Example 58, {3′-[5-(4-chlorophenyl)-1H-1,2,3-triazol-1-yl]-3-fluoro-5-(methylsulfonyl)-4′-[2-methyl-4-(trifluoromethyl)-1H-imidazol-1-yl]biphenyl-4-yl}methanol], the EC50 amounted to 217 nM and the Emax was determined as 78%.

Regarding `Cc1nc(-c2cc(-c3cccc(S(C)(=O)=O)c3)ccc2-n2cc(C(F)(F)F)nc2C)c(-c2ccc(Cl)cn2)o1` [Example 431, 5-(5-chloropyridin-2-yl)-2-methyl-4-(4-(2-methyl-4-(trifluoromethyl)-1H-imidazol-1-yl)-3′-(methylsulfonyl)biphenyl-3-yl)oxazole], a half-maximal effect (EC50) was put at 358 nM and the Emax came out at 85%.

In the case of `Cc1nc(-c2cc(-c3cc(F)c(CO)c(S(C)(=O)=O)c3)ccc2-n2cc(C(F)(F)F)nc2C)c(-c2ccc(OC(F)F)c(OC(F)F)c2)o1` [Example 393, (3′-(5-(3,4-bis(difluoromethoxy)phenyl)-2-methyloxazol-4-yl)-3-fluoro-4′-(2-methyl-4-(trifluoromethyl)-1H-imidazol-1-yl)-5-(methylsulfonyl)biphenyl-4-yl)methanol], a half-maximal response (EC50) required 64 nM and the Emax is 56%.

For the compound `Cc1nc(-c2ccc3c(c2)OC(F)(F)O3)c(-c2cc(-c3cccc(S(C)(=O)=O)c3)ccc2-n2cc(C(F)(F)F)nc2C)o1` [Example 615, 4-(2,2-difluorobenzo[d][1,3]dioxol-5-yl)-2-methyl-5-(4-(2-methyl-4-(trifluoromethyl)-1H-imidazol-1-yl)-3′-(methylsulfonyl)-[1,1′-biphenyl]-3-yl)oxazol], the EC50 stood at 31 nM and the Emax came to 96%.

For the compound `Cc1cn(-c2ccc(-c3cc(F)c(CO)c(S(C)(=O)=O)c3)cc2-n2nncc2-c2ccc(OC(F)(F)F)cc2)c(C)n1` [Example 84, [4′-(2,4-dimethyl-1H-imidazol-1-yl)-3-fluoro-5-(methylsulfonyl)-3′-(5-{4-[(trifluoromethyl)oxy]phenyl)-1H-1,2,3-triazol-1-yl)biphenyl-4-yl]methanol], the EC50 came out at 852 nM and the Emax is 96%.

Broadly, the EC50 is the concentration needed to bring the measured effect to its halfway point. Higher therefore signals a need for much substance.
